Test results taken from patent US11760744B2, “Fused ring compounds” (Genentech, Inc., priority 2018, dated 2023).

Experiments:
K-Ras G12C [1] = molecular target: T1, K-Ras G12C (Homo sapiens, UniProt P01116, G12C); assay: Western blot assay for in cell alkylation of K-Ras G12C (HCC1171 cells); assay type: cell-based; design: endogenous in cells; host or cells: HCC1171; settings: 18 hours at 37° C., 7 point dose response
Procedure: Western Blot Assay for in Cell Alkylation of K-Ras G12C
HCC1171 cells were maintained in RPMI1640 supplemented with 10% FBS. Cells were plated in a 96-well plate at 20,000 cells/well and the following day compounds were added to the cells. After 18 hours at 37° C., cells were lysed in RIPA buffer (Sigma R0278) with 0.5% SDS and protease/phosphatase inhibitor cocktail. After through mixing to enable complete lysis, the lysates were cleared by centrifugation before 20 μl was transferred from each well and combined with loading buffer and reducing agent. After heating for 10 minutes at 95° C., 15 μl of each sample was loaded onto a 4-20% Tris-Glycine gel and electrophoresed at 110V for 165 minutes in SDS-PAGE running buffer. Gels were transferred to a nitrocellulose membrane, blocked for 1 hour and stained overnight at 4° C. with primary antibody against K-Ras (polyclonal Proteintech 12063-1-AP). The membrane was then washed thoroughly and counterstained with anti-rabbit IRDye 800CW (LI-COR 926-32211) for one hour at room temperature. After final washes, the membrane was imaged on a LI-COR Odyssey CLx at medium resolution. Alkylated K-Ras was visible by an electrophoretic shift from unmodified K-Ras. To quantify this affect, the LICOR software was used to draw a rectangle over alkylated and unalkylated bands for each well and measured the total fluorescent intensity (FI) in each of these bands. The following formula was then used to calculate % alkylation: FI(alkylated)/(FI(alkylated)+FI(unalkylated))*100 for each well.
A 7 point dose response curve was used to determine the IC50 for each compound. Cell alkylation data are presented below in Table 2.
Target sequence in this assay (P01116 1-188 isoform P01116-2 G12C): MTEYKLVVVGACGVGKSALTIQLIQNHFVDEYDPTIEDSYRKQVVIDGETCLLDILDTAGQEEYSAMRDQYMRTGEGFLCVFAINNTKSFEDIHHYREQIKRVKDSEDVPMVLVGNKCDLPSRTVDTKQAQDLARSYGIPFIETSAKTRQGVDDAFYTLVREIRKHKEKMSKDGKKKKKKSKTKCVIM

K-Ras G12C [2] = molecular target: T1, K-Ras G12C; assay: K-Ras G12C, SOS1, Raf RBD HTRF assay for inhibition of GTP exchange; assay type: biochemical; design: K-Ras G12C (residues 2-188) and SOS1 (residues 564-1049) had N-terminal 6-His; made in house; host or cells: E. coli; settings: 18 hours preincubation with K-Ras G12C at room temperature; SOS1-mediated GTP exchange
Procedure: K-Ras G12C, SOS1, Raf RBD Homogeneous Time Resolved Fluorescence (HTRF) Assay for Inhibition of GTP Exchange
After 18 hours at room temperature, the SOS1 GTP exchange factor (1.67 nM during exchange, 1.25 nM final) was added to initiate nucleotide exchange to GTP (200 μM during exchange, 150 μM final). The level of GTP exchange was assessed by addition of a Ras binding domain derived from C-Raf and the HTRF detection antibodies Tb-anti-FLAG and D2-anti-his (Cis-Bio) at 50 nM, 1 nM and 12.5 nM, respectively. After 2 hours, the ratio of 665 nm to 615 nm emission with 320 nm excitation was measured on an Envision plate reader (Perkin Elmer).
The final reaction volume was 20 μl in a ProxiPlate-384F Plus (Perkin Elmer), in buffer containing 20 mM HEPES, 150 mM NaCl, 1 mM MgCl2, 0.1% BSA, 0.03% Tween-20 and 1 mM DTT. […] HTRF data are presented below in Table 2.
Target sequence in this assay (P01116 2-188 isoform P01116-2 G12C): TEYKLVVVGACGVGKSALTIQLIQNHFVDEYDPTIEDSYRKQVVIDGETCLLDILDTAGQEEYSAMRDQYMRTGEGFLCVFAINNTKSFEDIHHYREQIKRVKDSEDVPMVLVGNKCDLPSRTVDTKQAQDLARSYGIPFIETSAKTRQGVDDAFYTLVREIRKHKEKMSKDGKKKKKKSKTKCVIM

C=CC(=O)N1CCN(c2nc(OC[C@@H]3CCCN3C)nc3c2C[C@H](C(C)C)[C@@H](c2nc(N)cc(C)c2C(F)(F)F)C3)[C@@H](C)C1 (single isomer, unassigned) [Example 33b]
EC50 (K-Ras G12C [1]): 2200 nM
IC50 (K-Ras G12C [2]): 300 nM

C=CC(=O)N1CCN(c2ncnc3c2CC[C@H](c2c(C)c(C)cc4[nH]cnc24)C3)CC1 (single isomer, unassigned) [Example 10b]
EC50 (K-Ras G12C [1]): 1000 nM
IC50 (K-Ras G12C [2]): 270 nM

C=CC(=O)N1CCN(c2ncnc3c2CC[C@H](c2c(F)c(N)cc(C)c2C(F)(F)F)C3)CC1 (single isomer, unassigned) [Example 27a]
EC50 (K-Ras G12C [1]): 340 nM
IC50 (K-Ras G12C [2]): 89 nM

C=CC(=O)N1CCN(c2nc(OC[C@@H]3CCCN3C)nc3c2CC[C@@H](c2cc(O)cc4ccccc24)C3)C[C@@H]1CC#N (single isomer, unassigned) [Example 58d]
EC50 (K-Ras G12C [1]): 6.3 nM
IC50 (K-Ras G12C [2]): 24 nM

CN1CCC[C@H]1COc1nc2c(c(N3CCN(C(=O)/C=C/CNC45CC(C4)C5)[C@@H](CC#N)C3)n1)CCC(c1cccc3ccccc13)C2 (stereo partly drawn) [Example 48a, 2-((2S)-1-((E)-4-(bicyclo[1.1.1]pentan-1-ylamino)but-2-enoyl)-4-(2-(((S)-1-methylpyrrolidin-2-yl)methoxy)-7-(naphthalen-1-yl)-5,6,7,8-tetrahydroquinazolin-4-yl)piperazin-2-yl)acetonitrile]
EC50 (K-Ras G12C [1]): 150 nM
IC50 (K-Ras G12C [2]): 11 nM

C=CC(=O)Oc1cc(C2CCc3c(nc(OC[C@@H]4CCCN4C)nc3N3CCN(C(=O)C=C)C(CC#N)C3)C2)c2ccccc2c1 (stereo partly drawn) [Example 59a, 4-(4-(4-acryloyl-3-(cyanomethyl)piperazin-1-yl)-2-(((S)-1-methylpyrrolidin-2-yl)methoxy)-5,6,7,8-tetrahydroquinazolin-7-yl)naphthalen-2-yl acrylate]
EC50 (K-Ras G12C [1]): 29 nM
IC50 (K-Ras G12C [2]): 250 nM

C=CC(=O)N1CCN(c2nc(OC[C@@H]3CCCN3C)nc3c2CC[C@@H](c2cc(O)cc4ccccc24)C3)[C@@H](C)C1 (single isomer, unassigned) [Example 28a]
EC50 (K-Ras G12C [1]): 1000 nM
IC50 (K-Ras G12C [2]): 130 nM

C=CC(=O)N1CCN(c2ncnc3c2CC[C@H](c2cncc4ccccc24)C3)CC1 (single isomer, unassigned) [Example 44b]
EC50 (K-Ras G12C [1]): 1000 nM
IC50 (K-Ras G12C [2]): 8700 nM

C=C(F)C(=O)N1CCN(c2nc(OC[C@@H]3C[C@@H](F)CN3C)nc3c2C[C@H](C)[C@@H](c2c(F)c(N)cc(C)c2C(F)(F)F)C3)C[C@@H]1CC#N (single isomer, unassigned) [Example 38d]
EC50 (K-Ras G12C [1]): 1000 nM
IC50 (K-Ras G12C [2]): 1700 nM

C=CC(=O)N1CCN(c2ncnc3c2C[C@@H](C)[C@H](c2cc(CO)ccc2C)C3)CC1 (single isomer, unassigned) [Example 4b]
EC50 (K-Ras G12C [1]): 1300 nM
IC50 (K-Ras G12C [2]): 390 nM

C=CC(=O)N1CCN(c2ncnc3c2CC[C@@H](c2nc(N)cc4ccccc24)C3)CC1 (single isomer, unassigned) [Example 3a]
EC50 (K-Ras G12C [1]): 30000 nM
IC50 (K-Ras G12C [2]): > 50000 nM

C#CC[C@@H]1CN(c2nc(OC[C@@H]3CCCN3C)nc3c2C[C@@H](C)[C@H](c2cccc4c2CCC4)C3)CCN1C(=O)C=C (single isomer, unassigned) [Example 40d]
EC50 (K-Ras G12C [1]): 1000 nM
IC50 (K-Ras G12C [2]): 29 nM

C=CC(=O)N1CCN(c2ncnc3c2C[C@@H](C)[C@H](c2nc(N)ccc2C(F)(F)F)C3)CC1 (single isomer, unassigned) [Example 42b]
EC50 (K-Ras G12C [1]): 360 nM
IC50 (K-Ras G12C [2]): 67 nM

C=C(F)C(=O)N1CCN(c2nc(OC[C@@H]3CCCN3C)nc3c2C[C@H](C)[C@@H](c2c(F)c(N)cc(C)c2C(F)(F)F)C3)C[C@H]1CC#N (single isomer, unassigned) [Example 34b]
EC50 (K-Ras G12C [1]): 1200 nM
IC50 (K-Ras G12C [2]): 680 nM

CN1CCC[C@H]1COc1nc2c(c(N3CCN(C(=O)/C=C/CF)[C@H](CC#N)C3)n1)CCC(c1cc(O)cc3ccccc13)C2 (single isomer, unassigned) [Example 62d]
EC50 (K-Ras G12C [1]): 6.4 nM
IC50 (K-Ras G12C [2]): < 10 nM

C=CC(=O)N1CCN(c2nc(OC[C@@H]3CCCN3C)nc3c2CCC(c2cc(O)cc4ccccc24)C3)[C@@H](CO)C1 (single isomer, unassigned) [Example 29b]
EC50 (K-Ras G12C [1]): 330 nM
IC50 (K-Ras G12C [2]): < 10 nM
